Measurements: patent publication US9707272B2, “Method for the treatment of acne by administering IL-1β antibody” (UNIVERSITAT ZURICH, priority 2011, dated 2017)

B1: Canakinumab (antibody, V domains shown)
VH: QVQLVESGGGVVQPGRSLRLSCAASGFTFSVYGMNWVRQAPGKGLEWVAIIWYDGDNQYYADSVKGRFTISRDNSKNTLYLQMNGLRAEDTAVYYCARDLRTGPFDYWGQGTLVTVSS
VL: EIVLTQSPDFQSVTPKEKVTITCRASQSIGSSLHWYQQKPDQSPKLLIKYASQSFSGVPSRFSGSGSGTDFTLTINSLEAEDAAAYYCHQSSSLPFTFGPGTKVDIK
modifications: antibody fragment
notes: Id; No. 1 and 2

Columns and labels:
[1] = system: IL-1β secretion from human monocytes; assay: IL-1β secretion (ELISA) and maturation (western blot) from human monocytes exposed to P. acnes or inflammasome activators; type: cell-based; conditions: upLPS-primed human monocytes, P. acnes MOI=100, 6 h; Glibenclamide or KCl 65 mM added one hour prior, FIG. 3f
Method: For Western blotting cell culture supernatants were precipitated by addition of 0.25 volumes of trichloroacetic acid (100% w/v), 10 min incubation on ice and centrifugation for 5 min at 14,000 g. Protein pellet was washed twice with ice-cold acetone, centrifuged as described above and dried at 70° C. Cells were lysed with buffer (10 mM Tris pH 7.5, 1% NP-40, 150 mM NaCl, 5 mM EDTA,) containing a protease inhibitor cocktail. Proteins were separated on a NuPAGE gel in accordance with the manufacturer's protocol and transferred to a Hybond-C-Extra membrane by electroblotting. […] Appropriate HRP-conjugated secondary antibodies were used and proteins were detected using ECL reagent. […]
Human monocytes were primed with upLPS and infected with P. acnes (MOI=100) or stimulated with MSU crystals ([…]) in the presence of vehicle (DMSO) or pan-caspase inhibitor (Z-VAD-fmk, […]) for 24 h (FIG. 2a). IL-1β secretion was determined by ELISA and mature IL-1β release (IL-1β p17) by western blot. […]
THP1 cells were treated with vehicle (DMSO) or cytochalasin D (Cyt. D, […]) for one hour and then incubated with CFSE-labeled P. acnes (MOI=100) for 4 h or left untreated (FIG. 3a). Bacteria uptake was analyzed by FACS. […] IL-1β (FIG. 3f) and TNFα (FIG. 3g) release were determined after 6 h by ELISA. […]

TLR2−/− mice = assay: Intradermal P. acnes ear inflammation model in TLR2-deficient mice; type: in vivo, mouse; conditions: treatment with IL-1Ra or anti-IL-1β antibody; for development of cutaneous inflammation: histology, FIG. 4i; for development of ear swelling: FIG. 4g
Method: (§1) C57BL/6 mice received three intraperitoneal (i.p.) injections of IL-1 receptor antagonist (IL-1Ra, Anakinra, 150 mg/kg) or PBS at 8 h intervals. One hour after first i.p. injection of IL-1Ra mice received intradermal injections of P. acnes or PBS. TNFα inhibitor (Etanercept) and anti-IL-1β antibody treated mice (Canakinumab, […]) C57BL/6 mice received i.p. injection 24 h before an intradermal injection of P. acnes or PBS. To make bone marrow chimeras indicated mice were lethally irradiated (10 Gy) and subsequently transplanted with indicated bone marrow. After bone marrow reconstitution (8 weeks later) mice were interdermally injected with P. acnes or PBS.
(§2) The ear thickness was measured using a micro caliper before and 24 h after bacterial injection. The percentage of ear thickness was calculated by comparing the ear thickness before and 24 hours after injection.
(§3) WT mice were injected intradermally with P. acnes (20×10^6 CFU/[…] in PBS, left ear) or with an equal amount of PBS (right ear) (FIG. 4a). Mice were treated with vehicle (n=11) or three intraperitoneal injections of IL-1Ra (Anakinra, 150 mg/kg, n=13) at the 8 h intervals or a single i.p. injection of anti-IL1β antibody ([…]) one hour prior to P. acnes or PBS challenge. The ear swelling as measured 24 hrs later is presented. ASC^−/− mice were challenged the same way with P. acnes. The resulting ear swelling (FIG. 4b) and pro- and mature-IL1β in ear extracts (FIG. 4c) are presented. […] WT mice reconstituted with WT (n=8-10), ASC^−/− (n=12) or NLRP3^−/− (n=8) bone marrow were challenged with P. acnes or PBS as described above. The resulting swelling (FIG. 4e) and histology of the infected ear (FIG. 4f) are presented. TLR2^−/− (n=10) were intradermally injected with P. acnes or PBS one hour after treatment with IL-1Ra (n=10) or anti-IL-1β antibody (n=9) as described above. The resulting ear swelling (FIG. 4g) and histology (FIG. 4i) are presented.

C57BL/6 WT mice = assay: Intradermal P. acnes ear inflammation model in WT mice; type: in vivo, mouse; conditions: for ear swelling: intradermal P. acnes 20×10^6 CFU, 24 h, i.p. IL-1Ra 150 mg/kg three times at 8 h intervals or single i.p. anti-IL1β antibody, FIG. 4a; for subcutaneous neutrophil infiltration: intradermal P. acnes, histology (HE), i.p. IL-1Ra or anti-IL1β antibody, FIG. 4d
Method: as §1, §2, §3

Molecule | IL-1β release [1] | development of cutaneous inflammation (TLR2−/− mice) | development of ear swelling (TLR2−/− mice) | ear swelling (C57BL/6 WT mice) | subcutaneous neutrophil infiltration (C57BL/6 WT mice) | subcutaneous neutrophil infiltration (C57BL/6 WT mice; listed as IL-1 receptor antagonist) | subcutaneous neutrophil infiltration (C57BL/6 WT mice; listed as monoclonal anti-IL1β antibody)
COc1ccc(Cl)cc1C(=O)NCCc1ccc(S(=O)(=O)NC(=O)NC2CCCCC2)cc1 [glibenclamide, 5-Chloro-N-[2-[4-(cyclohexylcarbamoylsulfamoyl)phenyl]ethyl]-2-methoxy-benzamide] | significant reduction |  |  |  |  |  | 
Anakinra [IL-1Ra] |  | blocked | blocked | significant reduction | significant reduction | selective blockade | 
[Cl-].[K+] [KCl] | significant reduction |  |  |  |  |  | 
B1 |  | blocked | blocked | significant reduction | significant reduction |  | selective blockade
